Laboratory results: publication PMC12892976, “Alkylation-based optimization of antifungal FPPS inhibitors yields a potent, broad-spectrum lipophilic zoledronate derivative” (mBio, 2025)

How the values were obtained:
A. fumigatus [1] = experiment: membrane depolarization, diS-C3(3); type: cell-based, Aspergillus fumigatus; details: diS-C3(3) emission maximum
Description: Membrane depolarization was determined using potential-sensitive fluorophore diS-C3(3) (Sigma), as described previously ([51]). Yeast cells and A. fumigatus conidia were treated as described above, then washed with citrate phosphate buffer and labeled with 20 nM diS-C3(3) at a final concentration of 10^6 cells/mL for yeasts and 10^4 conidia/mL for Aspergillus. Cells were transferred to a microplate (Invitrogen), then emission spectra between 560 and 585 nm (λexcitation = 531 nm) were obtained every 12 min for 1 h using a CLARIOstar plate reader (BMG Labtech). The emission λmax was determined at each timepoint.

A. fumigatus [2] = experiment: ROS accumulation, DCFDA; type: cell-based, Aspergillus fumigatus
Description: All cultures were incubated for 6 h and then labeled with 20 µM DCFDA in PBS for 30 min. Labeled cultures were transferred into a microplate, and fluorescence intensity was measured using a CLARIOstar plate reader (BMG Labtech).

C. albicans = experiment: lipid peroxidation, TBARS assay (MDA); type: cell-based, Candida albicans
Description: Cultures were incubated overnight, pelleted, and resuspended in 1 mL ice-cold PBS. Malondialdehyde (MDA) was extracted and quantified using a TBARS assay kit (Cayman Chemical #700870) according to the manufacturer’s instructions. MDA was normalized to total protein content in cell lysates.

## CCCCCCCCCCn1cc[n+](CC(O)(P(=O)(O)O)P(=O)(O)O)c1 [10-ZOL, Decyl-zoledronate]
A. fumigatus [1]
  membrane depolarization: dose-dependent depolarization effect
A. fumigatus [2]
  concentration at which ROS (DCFDA fluorescence) increase became significant: 2 × MIC
C. albicans
  concentration at which lipid peroxidation increase became significant: 1 × MIC
